Results: patent publication US20080286213A1, “Pharmaceuticals for treating or preventing oral diseases” (HAWLEY & HAZEL (BVI) COMPANY LIMITED, priority 2007, published 2008)

Key:
[1] = tested on: IL-1β (interleukin); experiment: LUMINEX liquid-phase chip analysis of KB cell supernatant, IL-1β; assay type: cell-based, human; conditions: KB cells; the larger the value, the stronger the anti-inflammatory ability; concentration not given
Procedure: (§1) Anti-inflammatory activity was assessed using the KB cell (the epidermis cancer cell in human oral cavity). During the experiment, the KB cell inoculated in the cultivating plate was treated with or without positive control or compound morusin. After the treatment, the supernatant of the cultivating medium was collected and stored in −80° C. refrigerator. Inflammation was assessed by measuring several inflammation markers: Prostaglandin E2 (PGE2) in the supernatant was detected by Enzyme-linked immunsorbent assay, and LUMINEX™ multifunctional liquid-phase chip analysis system was used for the detection of granulocyte […] colony stimulating factor (GM-CSF), tumor necrosis factor-alpha (TNF-α), and interleukins 1-beta and 6 (IL-1β and IL-6).
(§2) LUMINEX™ multifunctional liquid-phase chip analyses of GM-CSF, TNF-α, IL-1 and IL-6: The 96-well plate was enclosed with enclosing liquid for 30 minutes. Fluorescent microspheres were added into the 96-well plate after dilution. The standard and the samples to be measured were added, and incubated overnight at 4° C. The next day, the supernatant was discarded and 50 μL GM-CSF, TNF-α, IL-1β and IL-6 antibodies were added to each well. After being rinsed for 4 times, the 96-well plate was placed in a shaking table, which was in ambient temperature, to keep the plate away from light for 1 hour. […]

[2] = tested on: Streptococcus sanguis (S. sa) ATCC 10556; experiment: MIC by micro-dilution method; assay type: cell-based; conditions: no unit in table; dilution series 250-0.12 mg/L, ceiling 250 ppm; 37°C, 18-24 h
Procedure: (§3) A single colony was picked from the Trypticase Digested Soybean peptone agar blood plate (TSA5B) of ordinarily stored bacteria species and used to inoculate corresponding broth culture medium, which was cultivated in a microaerobic environment (P.g needs anaerobic cultivation) with 95% air, 5% CO2 at 37.0° C.±1.0° C., wherein S.m was cultivated for 18-24 h, and the species were cultivated for 40-48 h. Then corresponding broth cultivate medium was used to adjust the turbidity of the bacteria suspension to 0.5^# McFarland standard, equivalent to 1.0×10^8 CFU/mL.
(§4) The operating steps were:
(§5) a. Preparation of the stock solution of antibacterial pharmaceutical: 1% stock solution of various antibacterial pharmaceuticals was prepared with 100% pure ethanol as solvent. The prepared stock solution was filtered to eliminate bacteria, and was distributed into small portions to be used.
(§6) b. Range of measured concentration: the present experiment used 250 ppm as the ceiling measured concentration of the anti-bacterial pharmaceutical.
(§7) c. Measuring method: micro-dilution method.
(§8) First, 100 μL broth medium was added to each well of the 96-well plate, then 100 μL sterile anti-bacteria pharmaceutical solution, which was diluted 10-fold (1000 mg/L), was added to each hole of the first column. Then each well of the first column was mixed repeatedly for 7-8 times using a multi-channel micropipet, and 100 μL sample was transferred to the second column after sufficiently mixing the pharmaceutical with TSB. After being similarly mixed for 7-8 times, 100 μL sample was transferred to the third column, and likewise to the wells of the remaining columns. Thus the concentration of the pharmaceutical was gradiently diluted 2-fold between the columns, from 500 mg/L in the first column to 0.24 mg/L in the last column (the 12th column).
(§9) The bacteria to be tested and standard bacteria were prepared as above. Both bacteria solutions were diluted with broth medium to a bacteria content of about 10^6 CFU/mL. Then 100 μL was inoculated into each well of the 96-well plate containing the anti-bacterial pharmaceutical. Thus the final diluted concentrations of the anti-bacteria pharmaceutical in each column were 250, 125, 62.5 . . . 0.12 mg/L, and the final inoculation quantity is about […] in each well. The 96-well plate was placed on a microshaker and shaken for 1 min to mix the solutions in each well. The microwell plate was covered and sealed with adhesive paper to reduce the evaporation during the incubation process. The plate was placed in a humid box, cultivated in microaerobic environment with 95% air, 5% CO2 (or in anaerobic environment with 90% N2, 5% H2, 5% CO2) at 37.0° C.±1.0° C. for 18-24 h. The 96-well plate is placed under an enzyme-labeling instrument. The growth characteristics of the tested bacteria were compared with the standard bacteria to determine the MIC, which was the lowest anti-bacterial pharmaceutical concentration contained in the well without bacterial growth.

[3] = tested on: Actinobacillus actinomycetemcomitans (A. a) ATCC 43717; experiment: MIC by micro-dilution method; assay type: cell-based; conditions: no unit in table; dilution series 250-0.12 mg/L, ceiling 250 ppm; 37°C, 18-24 h
Procedure: as §3, §4, §5, §6, §7, §8, §9

[4] = tested on: Streptococcus mutans (S. m) ATCC 25175; experiment: MIC by micro-dilution method; assay type: cell-based; conditions: no unit in table; dilution series 250-0.12 mg/L, ceiling 250 ppm; 37°C, 18-24 h
Procedure: as §3, §4, §5, §6, §7, §8, §9

[5] = tested on: Porphyromonas gingivalis (P. g) ATCC 33277; experiment: MIC by micro-dilution method; assay type: cell-based; conditions: no unit in table; dilution series 250-0.12 mg/L, ceiling 250 ppm; anaerobic, 37°C, 18-24 h
Procedure: as §3, §4, §5, §6, §7, §8, §9

[6] = tested on: Actinomyces naeslundii (A. n) ATCC 12104; experiment: MIC by micro-dilution method; assay type: cell-based; conditions: no unit in table; dilution series 250-0.12 mg/L, ceiling 250 ppm; 37°C, 18-24 h
Procedure: as §3, §4, §5, §6, §7, §8, §9

[7] = tested on: Actinomyces viscosus (A. v) ATCC 27044; experiment: MIC by micro-dilution method; assay type: cell-based; conditions: no unit in table; dilution series 250-0.12 mg/L, ceiling 250 ppm; 37°C, 18-24 h
Procedure: as §3, §4, §5, §6, §7, §8, §9

[8] = tested on: Fusobacterium nucleatum subsp. Polymorphum (F. n) ATCC 10953; experiment: MIC by micro-dilution method; assay type: cell-based; conditions: no unit in table; dilution series 250-0.12 mg/L, ceiling 250 ppm; 37°C, 18-24 h
Procedure: as §3, §4, §5, §6, §7, §8, §9

[9] = tested on: Prostaglandin E2 (PGE2); experiment: PGE2 enzyme-linked immunosorbent assay in KB cell supernatant; assay type: cell-based, human; conditions: oral KB cell, PGE2 in supernatant by ELISA
Procedure: as §1

[10] = tested on: TNF-α (Tumor Necrosis Factor); experiment: LUMINEX liquid-phase chip analysis of KB cell supernatant, TNF-α; assay type: cell-based, human; conditions: KB cells; the larger the value, the stronger the anti-inflammatory ability; concentration not given
Procedure: as §1, §2

[11] = tested on: GM-CSF; experiment: LUMINEX liquid-phase chip analysis of KB cell supernatant, GM-CSF; assay type: cell-based, human; conditions: KB cells; the larger the value, the stronger the anti-inflammatory ability; concentration not given
Procedure: as §1, §2

[12] = tested on: IL-6 (interleukin); experiment: LUMINEX liquid-phase chip analysis of KB cell supernatant, IL-6; assay type: cell-based, human; conditions: KB cells; the larger the value, the stronger the anti-inflammatory ability; concentration not given
Procedure: as §1, §2

Structure (SMILES)	anti-inflammatory effect, IL-1β (interleukin) [1]	MIC, S. sa ATCC 10556 [2]	MIC, A. a ATCC 43717 [3]	MIC, S. m ATCC 25175 [4]	MIC, P. g ATCC 33277 [5]	MIC, A. n ATCC 12104 [6]	MIC, A. v ATCC 27044 [7]	MIC, F. n ATCC 10953 [8]	50% inhibitory concentration (Prostaglandin E2 result) [9]	anti-inflammatory effect, TNF-α (Tumor Necrosis Factor) [10]	anti-inflammatory effect, GM-CSF [11]	anti-inflammatory effect, IL-6 (interleukin) [12]
CC(C)=CCc1c(-c2ccc(O)cc2O)oc2c3c(cc(O)c2c1=O)OC(C)(C)C=C3 [Morusin, 2-(2,4-dihydroxyphenyl)-5-hydroxy-8,8-dimethyl-3-(3-methyl-2-butenyl)-4H,8H-Benzo(1,2-b:3,4-b′)dipyran-4-one]	20%	3.9	2.4	3.9	1.9	1.9	2.4	15.6	0.02 ppm	91%	9%	49%
Oc1cc(Cl)ccc1Oc1ccc(Cl)cc1Cl [Triclosan]	7%	7.8	1.95	3.9	7.8	3.9	3.9	7.8	~0.02 ppm	81%	5%	31%
